# Results: US20220315591A1, “NEW EGFR INHIBITORS” (Hoffmann-La Roche Inc., priority 2019, published 2022)
# Target: T1, EGFR TMLRCS (BaF3-TMLRCS cell line) (Homo sapiens, UniProt P00533, C797S/L858R/T790M)
# T1 construct: host or cells: Ba/F3 (BaF3-TMLRCS), puromycin-selected
# Experiment: HTRF Phospho EGFR TMLRCS assay (cellular)
# Type: cell-based
# Details: BaF3-TMLRCS cells, 4 hours incubation
# Method: HTRF Phospho EGFR TMLRCS Assay (Cellular)
# BaF3-TMLRCS cell line were obtained from Crownbio (San Diego, Calif., USA). Cells were maintained at 37° C., 5% CO2 in RPMI ATCC (Gibco 31870)+2 mM Glutamine+0.5 μg/ml Puromycin supplemented with 10% fetal bovine serum (FBS) (Gibco).
# Cells are transferred as above to Greiner Bio-One, Nr. 784-08 micro-titerplate at 20000 cells/well in 12.5 μl of growth medium/well after the plates had been pre-filled with 12.5 nl of DMSO solutions of the to be tested compounds (in dose response) or DMSO only. After spinning the plates at 300×g for 30 seconds the cells were incubated for 4 hours at 37 C, 5% CO2, 95% humidity. The cells were lysed by adding to the compound mix 4 μl/well of the supplemented lysis buffer (Cis-bio, Phospho-EGFR HTRF kit, 64EG1PEH), followed by incubation for 30 min at room temperature with shaking (400 rpm). The plates were then frozen and stored overnight at −80 C. On the next day and after thawing the plates, 4 μl of a mixture of anti-Phospho-EGFR Cryptate and of anti-Phospho-EGFR-d2 antibody solutions prepared in the supplied detection buffer was added to each well. The lidded plates were then incubated for 4 h at room temperature before reading the fluorescence emission at 616 and 665 nm using an Envision reader (Perkin Elmer). Data was analyzed in similar fashion as above using the normalized ratio of the 665 to 616 signals multiplied by 10000.
# T1 sequence (P00533 25-1210 T790M/C797S/L858R): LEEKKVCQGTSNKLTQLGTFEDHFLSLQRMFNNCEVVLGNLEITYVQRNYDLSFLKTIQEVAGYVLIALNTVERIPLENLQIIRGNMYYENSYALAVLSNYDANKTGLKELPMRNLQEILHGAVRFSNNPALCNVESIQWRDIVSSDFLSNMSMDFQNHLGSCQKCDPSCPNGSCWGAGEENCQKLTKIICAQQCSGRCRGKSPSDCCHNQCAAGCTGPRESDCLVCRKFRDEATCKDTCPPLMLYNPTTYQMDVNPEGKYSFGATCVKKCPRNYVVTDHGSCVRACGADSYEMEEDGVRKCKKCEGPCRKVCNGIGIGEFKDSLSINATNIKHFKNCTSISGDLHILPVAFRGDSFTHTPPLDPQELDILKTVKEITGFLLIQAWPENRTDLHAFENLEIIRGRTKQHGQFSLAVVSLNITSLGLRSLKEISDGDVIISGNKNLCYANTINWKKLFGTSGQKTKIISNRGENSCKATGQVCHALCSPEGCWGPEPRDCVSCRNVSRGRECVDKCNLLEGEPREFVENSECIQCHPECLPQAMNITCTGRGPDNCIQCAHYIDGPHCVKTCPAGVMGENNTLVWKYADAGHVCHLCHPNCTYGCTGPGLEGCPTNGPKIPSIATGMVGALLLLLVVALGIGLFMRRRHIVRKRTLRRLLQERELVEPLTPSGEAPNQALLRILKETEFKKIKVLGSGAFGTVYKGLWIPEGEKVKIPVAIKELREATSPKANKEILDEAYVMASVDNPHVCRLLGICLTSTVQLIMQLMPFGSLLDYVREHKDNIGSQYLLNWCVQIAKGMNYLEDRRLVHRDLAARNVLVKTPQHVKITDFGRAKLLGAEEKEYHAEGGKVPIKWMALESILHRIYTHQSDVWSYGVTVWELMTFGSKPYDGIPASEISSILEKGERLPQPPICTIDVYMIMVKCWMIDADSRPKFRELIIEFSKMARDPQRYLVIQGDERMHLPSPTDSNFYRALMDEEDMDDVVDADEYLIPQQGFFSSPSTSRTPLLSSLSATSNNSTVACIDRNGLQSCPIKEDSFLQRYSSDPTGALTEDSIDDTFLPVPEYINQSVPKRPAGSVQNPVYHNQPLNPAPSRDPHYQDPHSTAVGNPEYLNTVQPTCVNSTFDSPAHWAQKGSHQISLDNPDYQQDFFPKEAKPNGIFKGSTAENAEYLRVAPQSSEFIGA
row,SMILES,IC50 [nM]
1,"O=C(Nc1nccs1)C(c1ncn2c1C[C@@H](F)C2)N1Cc2c(cc(C#Cc3ccc(CN4CC5(CC(O)C5)C4)cc3)cc2C(F)(F)F)C1=O (mixture of isomers) [Example 9, (2RS)-2-[(6R)-6-Fluoro-6,7-dihydro-5H-pyrrolo[1,2-c]imidazol-1-yl]-2-[6-[2-[4-[(6-hydroxy-2-azaspiro[3.3]heptan-2-yl)methyl]phenyl]ethynyl]-1-oxo-4-(trifluoromethyl)isoindolin-2-yl]-N-thiazol-2-yl-acetamide]",3
2,"O=C(Nc1nccs1)C(c1ncn2c1C[C@@H](F)C2)N1Cc2c(cc(C#Cc3ccc(CN4CCCC(O)CC4)cc3)cc2C(F)(F)F)C1=O (mixture of isomers) [Example 11, (2RS)-2-[(6R)-6-fluoro-6,7-dihydro-5H-pyrrolo[1,2-c]imidazol-1-yl]-2-[6-[2-[4-[[(4RS)-4-hydroxyazepan-1-yl]methyl]phenyl]ethynyl]-1-oxo-4-(trifluoromethyl)isoindolin-2-yl]-N-thiazol-2-yl-acetamide]",2
3,"O=C(Nc1nccs1)C(c1ncn2c1C[C@@H](F)C2)N1Cc2c(cc(C#Cc3ccc(CN4CCC(CO)CC4)cc3)cc2C(F)F)C1=O (mixture of isomers) [Example 10, (2RS)-2-[4-(Difluoromethyl)-6-[2-[4-[[4-(hydroxymethyl)-1-piperidyl]methyl]phenyl]ethynyl]-1-oxo-isoindolin-2-yl]-2-[(6R)-6-fluoro-6,7-dihydro-5H-pyrrolo[1,2-c]imidazol-1-yl]-N-thiazol-2-yl-acetamide]",2
4,"O=C(Nc1nccs1)C(c1ncn2c1C[C@@H](F)C2)N1Cc2c(cc(C#Cc3ccc(CN4CCC(CO)CC4)cc3)cc2C(F)(F)F)C1=O (mixture of isomers) [Example 6, (2RS)-2-[(6R)-6-Fluoro-6,7-dihydro-5H-pyrrolo[1,2-c]imidazol-1-yl]-2-[6-[2-[4-[[4-(hydroxymethyl)-1-piperidyl]methyl]phenyl]ethynyl]-1-oxo-4-(trifluoromethyl)isoindolin-2-yl]-N-thiazol-2-yl-acetamide]",1
5,"O=C(Nc1nccs1)C(c1ncn2c1CCC2)N1Cc2c(cc(C#Cc3ccc(CN4CCC(CO)CC4)cc3)cc2C(F)F)C1=O (racemic) [Example 5, (2RS)-2-[4-(Difluoromethyl)-6-[2-[4-[[4-(hydroxymethyl)-1-piperidyl]methyl]phenyl]ethynyl]-1-oxo-isoindolin-2-yl]-2-(6,7-dihydro-5H-pyrrolo[1,2-c]imidazol-1-yl)-N-thiazol-2-yl-acetamide]",3

# Results, then the molecule that gave them:
row,IC50 [nM],SMILES
1,16,"CCN1CCC(c2ccc(-c3cc4c(c(C(F)F)c3)CN(C(C(=O)Nc3nccs3)c3ncn5c3C[C@@H](F)C5)C4=O)cc2)CC1 (mixture of isomers) [Example 7, (2RS)-2-[4-(Difluoromethyl)-6-[4-(1-ethyl-4-piperidyl)phenyl]-1-oxo-isoindolin-2-yl]-2-[(6R)-6-fluoro-6,7-dihydro-5H-pyrrolo[1,2-c]imidazol-1-yl]-N-thiazol-2-yl-acetamide]"
2,18,"CCN1CCC(c2ccc(-c3cc4c(c(C(F)F)c3)CN(C(C(=O)Nc3nccs3)c3ncn5c3CCC5)C4=O)cc2)[C@@H](F)C1 (mixture of isomers) [Example 8, (2RS)-2-[4-(Difluoromethyl)-6-[4-1(3R,4R)-1-ethyl-3-fluoro-4-piperidyl]phenyl]-1-oxo-isoindolin-2-yl]-2-(6,7-dihydro-5H-pyrrolo[1,2-c]imidazol-1-yl)-N-thiazol-2-yl-acetamide and (2RS)-2-[4-(difluoromethyl)-6-[4-1(3S,4S)-1-ethyl-3-fluoro-4-piperidyl]phenyl]-1-oxo-isoindolin-2-yl]-2-(6,7-dihydro-5H-pyrrolo[1,2-c]imidazol-1-yl)-N-thiazol-2-yl-acetamide]"
3,20,"CCN1CCC(c2ccc(-c3cc4c(c(C(F)(F)F)c3)CN(C(C(=O)Nc3nccs3)c3ncn5c3CCC5)C4=O)cc2)CC1 (racemic) [Example 2, (2RS)-2-(6,7-Dihydro-5H-pyrrolo[1,2-c]imidazol-1-yl)-2-[6-[4-(1-ethyl-4-piperidyl)phenyl]-1-oxo-4-(trifluoromethyl)isoindolin-2-yl]-N-thiazol-2-yl-acetamide]"
4,11,"CCN1CCC(c2ccc(-c3cc4c(c(C(F)F)c3)CN(C(C(=O)Nc3nccs3)c3ncn5c3CCC5)C4=O)cc2)CC1 (racemic) [Example 4, (2RS)-2-[4-(Difluoromethyl)-6-[4-(1-ethyl-4-piperidyl)phenyl]-1-oxo-isoindolin-2-yl]-2-(6,7-dihydro-5H-pyrrolo[1,2-c]imidazol-1-yl)-N-thiazol-2-yl-acetamide]"
5,1,"O=C(Nc1nccs1)C(c1ncn2c1CCC2)N1Cc2c(cc(C#Cc3ccc(CN4CCC(CO)CC4)cc3)cc2C(F)(F)F)C1=O (racemic) [Example 3, (2RS)-2-(6,7-Dihydro-5H-pyrrolo[1,2-c]imidazol-1-yl)-2-[6-[2-[4-[[4-(hydroxymethyl)-1-piperidyl]methyl]phenyl]ethynyl]-1-oxo-4-(trifluoromethyl)isoindolin-2-yl]-N-thiazol-2-yl-acetamide]"
